Test results: patent US20170008888A1 (KYORIN PHARMACEUTICAL CO., LTD., priority 2014, published 2017)
pEC50, pIC50: −log10 of the molar value.

Tests used:
MV-4-11 cells [1] = test: Combination study with Ara-C in MV-4-11 cells (CellTiter-Glo); assay type: cell-based, human; settings: 48 h
Protocol: Human biphenotypic B myelomonocytic leukemia MV-4-11 cells (ATCC, Manassas, Va.) treated with test compounds at 2e5 cells/ml in IMDM medium containing 10% (v/v) FBS (Life Technologies, Grand Island, N.Y.) and 1×Pen/Strep Amphotericin B (Lonza, Allendale, N.J.). The final concentration of a test compound was set at a concentration previously determined to be its EC50 and Y3 EC50 values, while the combination test drug (Arabinofuranosyl Cytidine (Ara-C))(Sigma, St. Louis, Mo.) was assayed in serially-diluted 9-point concentrations against this background. Cells were treated for 48 h at 37° C. in a humidified atmosphere at 5% CO2. Cell viability was then determined indirectly via ATP content using the CellTiter-Glo® luminescent cell viability assay (Promega, Madison, Wis.) as per the manufacturer's instructions as follows: Briefly, experimental plates were equilibrated at room temperature for 30 minutes. An equal volume of CellTiter-Glo reagent was added to each well and incubated for 15 minutes at room temperature. Luminescent signal was read using the Wallac 1420 Victor2 multilabel microplate reader (Perkin Elmer, Waltham, Mass.).

AMPKa1 or AMPKa2 = test: Probe-based (AX9989) kinase profiling in Jurkat lysate: AMPKa1 or AMPKa2; assay type: binding; settings: screening concentration 10.0 μM
Outline: (§1)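 Percent inhibition was derived from reduced LC/MS fragment intensities of probe-labeled peptides relative to compound-free controls. Before labeling with 5 μM AX9989, Mn2+-supplemented (20 mM) Jurkat lysate was exposed to compound for 15 min at room temperature.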

AurB or AurC = test: Probe-based (AX9989) kinase profiling in Jurkat lysate: AurB or AurC; assay type: binding; settings: screening concentration 10.0 μM
Outline: as §1

MV-4-11 cells [2] = test: MV-4-11 proliferation EC50 assay (CellTiter-Glo); assay type: cell-based; settings: Homo sapiens, MV4-11, 48 h, read-out: MV-4-11 proliferation EC50, ave. ± S.D.
Protocol: Human biphenotypic B myelomonocytic leukemia MV-4-11 cells (ATCC, Manassas, Va.) were treated with test compounds at 2e5 cells/ml in IMDM medium containing 10% (v/v) FBS (Life Technologies, Grand Island, N.Y.) and 1×Pen/Strep Amphotericin B (Lonza, Allendale, N.J.). Compounds were tested at 25 μM down by ⅓ in a 9 point serial dilution series. Cells were incubated for 48 h at 37° C. in a humidified atmosphere at 5% CO2. MV-4-11 cell proliferation was then indirectly determined via cellular ATP content using the CellTiter-Glo® Luminescent Cell Viability Assay (Promega, Madison, Wis.) as per the manufacturer's instructions. Briefly, experimental plates were equilibrated at room temperature for 30 minutes. An equal volume of CellTiter-Glo® reagent was added to each well and incubated for 15 minutes at room temperature. Luminescent signal was read using the Wallac 1420 Victor^2 multilabel microplate reader (Perkin Elmer, Waltham, Mass.). EC50 values were determined using GraphPad Prism software v5.04.

TAO2 = molecular target: T1, TAO2 (Homo sapiens, UniProt Q9UL54); test: Probe-based (AX9989) kinase profiling in Jurkat lysate: TAO2; assay type: binding; settings: screening concentration 10.0 μM; read-out: Kinase inhibition % at indicated screening concentration: TAO2
T1 construct: screened for activity against several kinases in Jurkat cells; endogenous in cells; host or cells: Jurkat cell lysate
T1 sequence (Q9UL54 1-1235): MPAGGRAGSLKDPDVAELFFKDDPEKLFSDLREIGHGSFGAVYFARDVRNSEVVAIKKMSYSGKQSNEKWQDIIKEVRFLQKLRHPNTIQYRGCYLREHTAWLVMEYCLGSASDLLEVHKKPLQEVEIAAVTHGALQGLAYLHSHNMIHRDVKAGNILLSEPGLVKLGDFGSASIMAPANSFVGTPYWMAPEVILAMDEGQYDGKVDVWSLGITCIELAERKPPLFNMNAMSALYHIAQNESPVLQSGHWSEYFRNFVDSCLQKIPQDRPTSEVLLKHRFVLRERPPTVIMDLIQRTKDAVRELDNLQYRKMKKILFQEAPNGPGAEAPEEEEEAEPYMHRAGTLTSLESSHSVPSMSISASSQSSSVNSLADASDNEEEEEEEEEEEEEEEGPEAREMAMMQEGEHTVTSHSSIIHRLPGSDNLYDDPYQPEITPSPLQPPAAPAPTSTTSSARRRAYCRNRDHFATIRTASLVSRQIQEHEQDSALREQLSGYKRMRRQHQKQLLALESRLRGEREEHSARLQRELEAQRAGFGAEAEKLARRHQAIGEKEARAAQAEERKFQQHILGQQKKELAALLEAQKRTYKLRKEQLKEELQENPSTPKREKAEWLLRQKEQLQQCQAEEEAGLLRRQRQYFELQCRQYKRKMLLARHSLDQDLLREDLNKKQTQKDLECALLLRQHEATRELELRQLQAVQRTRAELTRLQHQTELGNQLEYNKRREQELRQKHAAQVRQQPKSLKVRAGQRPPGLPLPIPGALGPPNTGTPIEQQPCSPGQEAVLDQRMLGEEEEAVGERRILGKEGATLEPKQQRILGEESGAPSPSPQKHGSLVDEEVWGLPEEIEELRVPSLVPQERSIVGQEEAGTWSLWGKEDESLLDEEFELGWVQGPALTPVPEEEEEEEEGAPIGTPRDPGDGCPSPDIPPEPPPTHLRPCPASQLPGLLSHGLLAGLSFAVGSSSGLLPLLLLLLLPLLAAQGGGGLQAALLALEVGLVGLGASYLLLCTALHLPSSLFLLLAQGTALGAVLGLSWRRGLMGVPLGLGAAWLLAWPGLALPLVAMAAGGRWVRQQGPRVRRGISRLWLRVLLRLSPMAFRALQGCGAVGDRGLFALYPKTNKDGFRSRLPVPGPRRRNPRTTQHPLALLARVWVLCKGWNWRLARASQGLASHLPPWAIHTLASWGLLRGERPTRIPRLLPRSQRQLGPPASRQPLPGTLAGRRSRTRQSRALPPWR
Outline: as §1

ACK = molecular target: T2, ACK (Homo sapiens, UniProt Q07912); test: Probe-based (AX9989) kinase profiling in Jurkat lysate: ACK; assay type: binding; settings: screening concentration 10.0 μM; read-out: Kinase inhibition % at indicated screening concentration: ACK
T2 construct: screened for activity against several kinases in Jurkat cells; endogenous in cells; host or cells: Jurkat cell lysate
Outline: as §1

ABL or ARG = test: Probe-based (AX9989) kinase profiling in Jurkat lysate: ABL or ARG; assay type: binding; settings: screening concentration 10.0 μM
Outline: as §1

ERK5 = molecular target: T3, ERK5 (Homo sapiens, UniProt Q13164); test: Probe-based (AX9989 acyl phosphate ATP probe) kinase profiling in Jurkat lysate: ERK5; assay type: binding
T3 construct: screened for activity against several kinases in Jurkat cells; endogenous in cells; host or cells: Jurkat cell lysate
Outline: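 ERK5 IC50 values came from percent inhibition at the screening concentration, measured as loss of LC/MS signal of probe-labelled active-site peptides. Compound was added for 15 min at room temperature to Jurkat lysate (5 mg/ml, 20 mM MnCl2) before labelling with AX9989 ATP acyl phosphate probe at 5 μM.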

AurA = molecular target: T4, AurA (Homo sapiens, UniProt O14965); test: Probe-based (AX9989) kinase profiling in Jurkat lysate: AurA; assay type: binding; settings: screening concentration 10.0 μM; read-out: Kinase inhibition % at indicated screening concentration: AurA
T4 construct: screened for activity against several kinases in Jurkat cells; endogenous in cells; host or cells: Jurkat cell lysate
T4 sequence (O14965 1-403): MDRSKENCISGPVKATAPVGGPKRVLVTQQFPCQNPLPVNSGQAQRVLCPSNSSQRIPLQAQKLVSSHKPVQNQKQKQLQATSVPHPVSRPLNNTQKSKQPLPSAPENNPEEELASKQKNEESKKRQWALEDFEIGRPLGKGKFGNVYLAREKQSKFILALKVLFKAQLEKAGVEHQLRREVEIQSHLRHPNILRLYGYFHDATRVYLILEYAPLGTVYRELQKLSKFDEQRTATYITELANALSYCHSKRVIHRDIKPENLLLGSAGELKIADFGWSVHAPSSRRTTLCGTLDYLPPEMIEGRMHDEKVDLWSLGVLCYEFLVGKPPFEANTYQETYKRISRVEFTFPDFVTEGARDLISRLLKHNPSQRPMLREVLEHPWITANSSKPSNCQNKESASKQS
Outline: as §1

JAK1 = molecular target: T5, JAK1 (Homo sapiens, UniProt P23458); test: Probe-based (AX9989) kinase profiling in Jurkat lysate: JAK1; assay type: binding; settings: screening concentration 10.0 μM; read-out: Kinase inhibition % at indicated screening concentration: JAK1
T5 construct: screened for activity against several kinases in Jurkat cells; endogenous in cells; host or cells: Jurkat cell lysate
Outline: as §1

T3 sequence (Q13164 whole entry): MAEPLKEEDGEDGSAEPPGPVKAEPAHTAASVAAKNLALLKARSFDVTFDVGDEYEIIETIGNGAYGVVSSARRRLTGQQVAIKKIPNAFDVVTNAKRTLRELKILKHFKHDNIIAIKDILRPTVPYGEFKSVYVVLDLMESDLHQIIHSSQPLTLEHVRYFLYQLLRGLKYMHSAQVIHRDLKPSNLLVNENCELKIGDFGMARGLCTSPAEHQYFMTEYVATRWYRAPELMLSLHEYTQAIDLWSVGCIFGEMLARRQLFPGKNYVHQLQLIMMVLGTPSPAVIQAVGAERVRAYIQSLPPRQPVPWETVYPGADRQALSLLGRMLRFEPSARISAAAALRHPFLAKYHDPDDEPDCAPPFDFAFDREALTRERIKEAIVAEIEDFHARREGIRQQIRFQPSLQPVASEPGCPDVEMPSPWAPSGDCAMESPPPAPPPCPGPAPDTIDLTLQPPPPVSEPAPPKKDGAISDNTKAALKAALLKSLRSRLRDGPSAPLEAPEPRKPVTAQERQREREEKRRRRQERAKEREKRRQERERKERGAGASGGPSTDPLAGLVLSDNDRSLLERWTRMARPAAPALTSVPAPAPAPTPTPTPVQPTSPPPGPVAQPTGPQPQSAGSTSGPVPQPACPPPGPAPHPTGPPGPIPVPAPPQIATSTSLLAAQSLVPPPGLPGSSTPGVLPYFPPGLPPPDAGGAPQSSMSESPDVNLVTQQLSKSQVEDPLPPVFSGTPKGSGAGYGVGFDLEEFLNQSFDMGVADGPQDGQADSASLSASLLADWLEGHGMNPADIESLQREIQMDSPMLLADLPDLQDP
T5 sequence (P23458 whole entry): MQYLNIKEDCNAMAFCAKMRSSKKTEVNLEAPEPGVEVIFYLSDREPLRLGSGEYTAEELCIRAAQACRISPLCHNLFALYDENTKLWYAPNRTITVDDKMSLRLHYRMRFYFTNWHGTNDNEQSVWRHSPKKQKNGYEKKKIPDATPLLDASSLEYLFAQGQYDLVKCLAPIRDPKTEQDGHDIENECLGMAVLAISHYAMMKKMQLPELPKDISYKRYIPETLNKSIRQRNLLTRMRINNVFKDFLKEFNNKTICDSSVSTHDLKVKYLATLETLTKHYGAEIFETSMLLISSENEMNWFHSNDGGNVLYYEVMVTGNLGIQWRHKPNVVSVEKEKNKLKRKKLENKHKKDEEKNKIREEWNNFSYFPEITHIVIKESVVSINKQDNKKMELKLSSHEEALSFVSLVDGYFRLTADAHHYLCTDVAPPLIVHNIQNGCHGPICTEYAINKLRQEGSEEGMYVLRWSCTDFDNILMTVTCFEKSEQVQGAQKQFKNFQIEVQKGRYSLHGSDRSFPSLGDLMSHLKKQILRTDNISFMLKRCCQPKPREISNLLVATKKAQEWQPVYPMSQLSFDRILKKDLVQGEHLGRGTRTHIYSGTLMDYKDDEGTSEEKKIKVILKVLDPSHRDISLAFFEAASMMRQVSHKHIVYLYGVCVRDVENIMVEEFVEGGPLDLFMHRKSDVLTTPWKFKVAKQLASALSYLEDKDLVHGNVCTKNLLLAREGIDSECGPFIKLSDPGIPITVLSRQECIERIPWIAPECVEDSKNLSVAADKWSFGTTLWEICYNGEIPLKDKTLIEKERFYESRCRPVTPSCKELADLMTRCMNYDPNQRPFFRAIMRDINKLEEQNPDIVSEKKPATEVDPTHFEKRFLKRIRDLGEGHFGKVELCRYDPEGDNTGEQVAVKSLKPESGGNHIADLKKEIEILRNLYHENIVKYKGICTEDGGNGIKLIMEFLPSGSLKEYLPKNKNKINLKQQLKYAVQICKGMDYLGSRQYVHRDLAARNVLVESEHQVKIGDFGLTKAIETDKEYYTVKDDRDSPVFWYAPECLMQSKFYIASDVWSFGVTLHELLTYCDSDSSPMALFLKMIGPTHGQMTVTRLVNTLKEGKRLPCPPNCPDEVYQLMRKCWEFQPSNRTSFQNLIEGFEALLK
T2 sequence (Q07912 whole entry): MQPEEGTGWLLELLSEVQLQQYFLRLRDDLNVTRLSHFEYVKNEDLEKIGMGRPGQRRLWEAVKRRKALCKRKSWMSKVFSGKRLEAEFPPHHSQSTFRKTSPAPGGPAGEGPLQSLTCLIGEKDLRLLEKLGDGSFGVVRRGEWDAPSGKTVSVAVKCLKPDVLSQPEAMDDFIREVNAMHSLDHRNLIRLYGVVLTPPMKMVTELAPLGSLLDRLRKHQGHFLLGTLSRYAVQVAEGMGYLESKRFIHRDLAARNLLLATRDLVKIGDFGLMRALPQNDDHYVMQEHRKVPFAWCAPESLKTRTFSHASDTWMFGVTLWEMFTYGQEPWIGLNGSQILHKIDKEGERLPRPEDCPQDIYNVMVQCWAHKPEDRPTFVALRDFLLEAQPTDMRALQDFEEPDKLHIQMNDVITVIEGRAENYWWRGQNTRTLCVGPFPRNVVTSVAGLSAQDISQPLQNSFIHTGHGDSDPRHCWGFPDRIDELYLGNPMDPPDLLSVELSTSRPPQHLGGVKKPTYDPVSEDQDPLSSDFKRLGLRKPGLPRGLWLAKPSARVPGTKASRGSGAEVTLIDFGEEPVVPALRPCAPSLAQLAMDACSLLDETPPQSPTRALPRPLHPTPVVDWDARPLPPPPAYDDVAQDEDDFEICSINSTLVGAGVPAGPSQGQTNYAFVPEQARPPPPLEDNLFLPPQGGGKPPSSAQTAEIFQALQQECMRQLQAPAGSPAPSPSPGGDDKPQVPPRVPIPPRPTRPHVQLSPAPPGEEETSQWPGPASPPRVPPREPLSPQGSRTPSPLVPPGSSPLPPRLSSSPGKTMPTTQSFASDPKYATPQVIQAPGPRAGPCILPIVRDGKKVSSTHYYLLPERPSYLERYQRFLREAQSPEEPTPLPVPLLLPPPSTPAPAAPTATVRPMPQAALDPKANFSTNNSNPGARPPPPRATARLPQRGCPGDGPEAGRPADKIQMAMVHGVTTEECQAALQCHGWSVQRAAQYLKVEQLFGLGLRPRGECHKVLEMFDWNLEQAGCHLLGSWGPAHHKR

Row | EC50 (MV-4-11 cells [1]; read-out: EC50 (μM) of Ara-C in combination with a fixed concentration of compound 61 at EC50) | EC50 (MV-4-11 cells [1]; read-out: EC50 (μM) of Ara-C in combination with a fixed concentration of compound 61 at ⅓ EC50) | EC50 (MV-4-11 cells [1]; read-out: EC50 (μM) of Ara-C, compound 61 not present) | Kinase inhibition % at indicated screening concentration: AMPKa1 or AMPKa2 (AMPKa1 or AMPKa2) | Kinase inhibition % at indicated screening concentration: AurB or AurC (AurB or AurC) | pEC50 (MV-4-11 cells [2]) | inhibition at 10 µM (TAO2) | inhibition at 10 µM (ACK) | Kinase inhibition % at indicated screening concentration: ABL or ARG (ABL or ARG) | pIC50 (ERK5; calculated from percent inhibition of AX9989 labeling and the screening concentration, Jurkat lysate) | inhibition at 10 µM (ERK5; screening concentration 10.0 μM, read-out: Kinase inhibition % at indicated screening concentration: ERK5) | inhibition at 10 µM (AurA) | inhibition at 10 µM (JAK1) | SMILES
1 | 0.108 µM | 0.265 µM | 0.353 µM |  |  |  |  |  |  |  |  |  |  | Nc1ccn([C@@H]2O[C@H](CO)[C@@H](O)[C@@H]2O)c(=O)n1 [Ara-C]
2 |  |  |  | C (C is >50% to ≦75%) | A (A>90%) | 7.22 | 50 to 75% | 75 to 90% | C (C is >50% to ≦75%) | < 6.30 | 75 to 90% | > 90% | 50 to 75% | CN1C(=O)c2ccccc2N(C)c2cc(Nc3ccc(N4CCC(O)CC4)cn3)ncc21 [Compound 4]
